{"source": "patent US20250360167A1", "about": "(Keryx Biopharmaceuticals, Inc., priority 2013, published 2025)", "type_in_all_cases": "in vivo, human", "key": {"[1]": {"tested_on": "transferrin saturation (TSAT)", "assay": "Phase 3 trial (Example 1): TSAT", "parameters": "TSAT, Mean / TSAT, Median / TSAT, Change from Baseline, Mean / TSAT, Change from Baseline, Median / TSAT, LS Mean / TSAT, Treatment Differences, LS Mean (KRX-0502) − LS Mean (control): unit not given here", "details": "for TSAT, Mean / TSAT, Median / TSAT, LS Mean / TSAT, Change from Baseline, Mean / TSAT, Change from Baseline, Median / TSAT, Treatment Differences, LS Mean (KRX-0502) − LS Mean (control): Table 16", "from_the_text": "Iron studies including serum iron, ferritin, TSAT, and total iron-binding capacity were done at Screening (Visit 0); at the Randomization Visit (Visit 4); at Visits 7 (Week 4), 9 (Week 8), 11 (Week 12), 12 (Week 16), 13 (Week 20), 14 (Week 24), 15 (Week 28), 16 (Week 32), 17 (Week 36), 18 (Week 40), 19 (Week 44), 20 (Week 48), and 21 (Week 52) of the 52-week Safety Assessment Period; and at Visit 25 (Week 56) of the Efficacy Assessment Period.\nChange from baseline in TSAT at Week 52 as compared to baseline (Visit 4). This variable will be analyzed using LOCF methodology. ANCOVA will be employed. The model will include treatment (fixed effect), and baseline (covariate). A sensitivity analysis will be performed using MMRM method.\n• 1. Change in serum calcium concentration at Weeks 12, 24, 36, 48, and 52 as compared to baseline (Visit 4). This variable will be analyzed using LOCF methodology. ANCOVA will be employed. The model will include treatment (fixed effect), and baseline (covariate). • 2. Change in ferritin, and TSAT at Weeks 12, 24, 36 and 48 as compared to baseline (Visit 4). This variable will be analyzed using LOCF methodology. ANCOVA will be employed. The model will include treatment (fixed effect), and baseline (covariate). • 3. Change in serum iron and TIBC at Weeks 12, 24, 36, 48, and 52 as compared to baseline (Visit 4). This variable will be analyzed using LOCF methodology. ANCOVA will be employed. The model will include treatment (fixed effect), and baseline (covariate). • 4. Change in Ca x P product at Weeks 12, 24, 36, 48, and 52 as compared to baseline (Visit 4). This variable will be analyzed using LOCF methodology. ANCOVA will be employed. The model will include treatment (fixed effect), and baseline (covariate). • 5. Change in iPTH at Weeks 12, 36, 52, and 56 as compared to baseline (Visit 4). This variable will be analyzed using LOCF methodology. ANCOVA will be employed. The model will include treatment (fixed effect), and baseline (covariate). • 6. Change in serum […], vitamin A, vitamin B-12, vitamin E, vitamin K and folic acid at Weeks 12, 36, and 52 as compared to baseline (Visit 4). This variable will be analyzed using LOCF methodology. ANCOVA will be employed. The model will include treatment (fixed effect), and baseline (covariate). • 7. Change in serum bicarbonate concentration at Weeks 12, 36, and 52 as compared to baseline (Visit 4). This variable will be analyzed using LOCF methodology. ANCOVA will be employed. The model will include treatment (fixed effect), and baseline (covariate). • 8. Change in IV iron intake at Weeks 12, 24, 36, 48, and 52 as compared to baseline (Visit 4). This variable will be analyzed using LOCF methodology. ANCOVA will be employed. The model will include treatment (fixed effect), and baseline (covariate). • 9. Change in the use of EPO (ESA) administered at Weeks 12, 24, 36, 48, and 52 as compared to baseline (Visit 4). This variable will be analyzed using LOCF methodology. ANCOVA will be employed. The model will include treatment (fixed effect), and baseline (covariate). • 10. Change in the use of Vitamin D supplementation (and its analogs) and Sensipar (cinacalcet) at Weeks 12, 24, 36, 48, and 52 as compared to baseline (Visit 4). This variable will be analyzed using LOCF methodology. ANCOVA will be employed. The model will include treatment (fixed effect), and baseline (covariate). • 11. Change in LDL, HDL, and triglycerides at Weeks 12, 36, and 52 as compared to baseline (Visit 4). This variable will be analyzed using LOCF methodology. ANCOVA will be employed. The model will include treatment (fixed effect), and baseline (covariate)."}, "ferritin": {"tested_on": "ferritin", "assay": "Phase 2 trial (Example 2): ferritin", "from_the_text": "Change in serum phosphorus, ferritin and TSAT levels from baseline to end of treatment after 12 weeks are the primary endpoints.\n(§1) The key secondary endpoints of the study were the mean changes in ferritin, hemoglobin and FGF-23 from baseline to the end of the 12-week treatment period versus placebo in the ITT group."}, "hemoglobin": {"tested_on": "hemoglobin", "assay": "Phase 2 trial (Example 2): hemoglobin", "details": "ITT group, n = 72", "from_the_text": "as §1"}, "[2]": {"details": "Day 0 Baseline, Safety Assessment Period"}}}
{"substance": "iron (+3), x (1, 2, 3-propanetricarboxylic acid, 2-hydroxy-), y (H2O) [KRX-0502]", "values": [{"measurement": "Mean TSAT, LS Mean Difference from Active Control Group at Week 52", "setting": "[1]; ANCOVA, Table D", "result": 10, "unit": "%"}, {"measurement": "Mean TSAT", "setting": "[1]; Baseline (Day 0), Table D", "result": 31, "unit": "%"}, {"measurement": "TSAT, Mean", "setting": "[1]; [2]", "result": 31.0}, {"measurement": "TSAT, Median", "setting": "[1]; [2]", "result": 29.5}, {"measurement": "TSAT, LS Mean", "setting": "[1]; Week 12, ANCOVA", "result": 40.17}, {"measurement": "Mean TSAT", "setting": "[1]; Week 12, LOCF, Table D", "result": 40, "unit": "%"}, {"measurement": "TSAT, Change from Baseline, Mean", "setting": "[1]; Week 12", "result": 9.2}, {"measurement": "TSAT, Change from Baseline, Median", "setting": "[1]; Week 12", "result": 7.0}, {"measurement": "TSAT, Mean", "setting": "[1]; Week 12", "result": 40.2}, {"measurement": "TSAT, Median", "setting": "[1]; Week 12", "result": 37.0}, {"measurement": "TSAT, Treatment Differences, LS Mean (KRX-0502) − LS Mean (control)", "setting": "[1]; Week 12", "result": 8.74}, {"measurement": "TSAT, LS Mean", "setting": "[1]; Week 24, ANCOVA", "result": 39.90}, {"measurement": "Mean TSAT", "setting": "[1]; Week 24, LOCF, Table D", "result": 40, "unit": "%"}, {"measurement": "TSAT, Change from Baseline, Mean", "setting": "[1]; Week 24", "result": 8.9}, {"measurement": "TSAT, Change from Baseline, Median", "setting": "[1]; Week 24", "result": 7.0}, {"measurement": "TSAT, Mean", "setting": "[1]; Week 24", "result": 39.9}, {"measurement": "TSAT, Median", "setting": "[1]; Week 24", "result": 38.0}, {"measurement": "TSAT, Treatment Differences, LS Mean (KRX-0502) − LS Mean (control)", "setting": "[1]; Week 24", "result": 8.28}, {"measurement": "TSAT, LS Mean", "setting": "[1]; Week 36, ANCOVA", "result": 39.80}, {"measurement": "Mean TSAT", "setting": "[1]; Week 36, LOCF, Table D", "result": 40, "unit": "%"}, {"measurement": "TSAT, Change from Baseline, Mean", "setting": "[1]; Week 36", "result": 8.8}, {"measurement": "TSAT, Change from Baseline, Median", "setting": "[1]; Week 36", "result": 7.0}, {"measurement": "TSAT, Mean", "setting": "[1]; Week 36", "result": 39.8}, {"measurement": "TSAT, Median", "setting": "[1]; Week 36", "result": 37.0}, {"measurement": "TSAT, Treatment Differences, LS Mean (KRX-0502) − LS Mean (control)", "setting": "[1]; Week 36", "result": 9.44}, {"measurement": "TSAT, LS Mean", "setting": "[1]; Week 48, ANCOVA", "result": 40.60}, {"measurement": "Mean TSAT", "setting": "[1]; Week 48, LOCF, Table D", "result": 41, "unit": "%"}, {"measurement": "TSAT, Change from Baseline, Mean", "setting": "[1]; Week 48", "result": 9.6}, {"measurement": "TSAT, Change from Baseline, Median", "setting": "[1]; Week 48", "result": 7.0}, {"measurement": "TSAT, Mean", "setting": "[1]; Week 48", "result": 40.6}, {"measurement": "TSAT, Median", "setting": "[1]; Week 48", "result": 38.0}, {"measurement": "TSAT, Treatment Differences, LS Mean (KRX-0502) − LS Mean (control)", "setting": "[1]; Week 48", "result": 11.17}, {"measurement": "TSAT, LS Mean", "setting": "[1]; Week 52, ANCOVA", "result": 39.35}, {"measurement": "Mean TSAT", "setting": "[1]; Week 52, LOCF, Table D", "result": 39, "unit": "%"}, {"measurement": "TSAT, Change from Baseline, Mean", "setting": "[1]; Week 52", "result": 8.3}, {"measurement": "TSAT, Change from Baseline, Median", "setting": "[1]; Week 52", "result": 6.0}, {"measurement": "TSAT, Mean", "setting": "[1]; Week 52", "result": 39.4}, {"measurement": "TSAT, Median", "setting": "[1]; Week 52", "result": 35.0}, {"measurement": "TSAT, Treatment Differences, LS Mean (KRX-0502) − LS Mean (control)", "setting": "[1]; Week 52", "result": 9.66}, {"measurement": "Mean TSAT, % Change from Baseline", "setting": "[1]; Week 52, relative change, Table D", "result": 25.8, "unit": "%"}, {"measurement": "Mean TSAT, Change from Baseline at Week 52", "setting": "[1]; absolute TSAT points, Table D", "result": 8, "unit": "%"}, {"measurement": "Mean Ferritin, Baseline", "setting": "ferritin; Baseline, ITT group, n = 72", "result": 116, "unit": "ng/mL"}, {"measurement": "Mean Ferritin, End of Treatment (Week 12)", "setting": "ferritin; Week 12, last observation carried forward, ITT group, n = 72", "result": 189, "unit": "ng/mL"}, {"measurement": "ending ferritin level at Visit 11 (Week 12)", "setting": "ferritin; sample size assumption", "result": "approximately 300 ng/mL"}, {"measurement": "Mean Hemoglobin, Baseline", "setting": "hemoglobin; Baseline", "result": 10.5, "unit": "g/dL"}, {"measurement": "Mean Hemoglobin, End of Treatment (Week 12)", "setting": "hemoglobin; Week 12, last observation carried forward", "result": 11.0, "unit": "g/dL"}]}
